According to publication PMC7932537, “Quantitative profiling of protease specificity” (PLoS Computational Biology, 2021):

Key:
[1] = system: MMP-2; experiment: Substrate phage display with NGS: relative probability (RP) of P3-P1' tetramer clusters; type: biochemical, human; conditions: MMP2;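 also: ratio of tetramer probability after protease selection to that in naive phage library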
[2] = biological target: T1, MMP-2 (Homo sapiens, UniProt P08253); experiment: K(obs) of individual phage substrates (set of 1369); type: biochemical; conditions: MMP2
T1 sequence (P08253 110-660): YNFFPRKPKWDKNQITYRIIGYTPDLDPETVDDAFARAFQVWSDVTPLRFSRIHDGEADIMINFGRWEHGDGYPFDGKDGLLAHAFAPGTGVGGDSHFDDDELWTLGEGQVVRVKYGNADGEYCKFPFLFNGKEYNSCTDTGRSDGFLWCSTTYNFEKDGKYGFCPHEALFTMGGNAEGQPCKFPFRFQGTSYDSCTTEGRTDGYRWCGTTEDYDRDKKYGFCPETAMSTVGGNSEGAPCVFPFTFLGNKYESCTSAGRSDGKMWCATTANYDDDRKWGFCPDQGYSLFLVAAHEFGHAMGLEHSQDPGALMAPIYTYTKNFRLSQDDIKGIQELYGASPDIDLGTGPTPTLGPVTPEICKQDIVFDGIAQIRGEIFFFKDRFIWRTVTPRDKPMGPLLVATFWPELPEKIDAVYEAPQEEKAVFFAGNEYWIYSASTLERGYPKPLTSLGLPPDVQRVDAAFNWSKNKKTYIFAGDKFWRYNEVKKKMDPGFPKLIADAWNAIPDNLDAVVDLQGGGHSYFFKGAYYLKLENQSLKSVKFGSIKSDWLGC

[3] = biological target: MMP-9 (Homo sapiens, UniProt P14780); experiment: as above; type: biochemical; conditions: MMP9
MMP-9, sequence (P14780 94-707): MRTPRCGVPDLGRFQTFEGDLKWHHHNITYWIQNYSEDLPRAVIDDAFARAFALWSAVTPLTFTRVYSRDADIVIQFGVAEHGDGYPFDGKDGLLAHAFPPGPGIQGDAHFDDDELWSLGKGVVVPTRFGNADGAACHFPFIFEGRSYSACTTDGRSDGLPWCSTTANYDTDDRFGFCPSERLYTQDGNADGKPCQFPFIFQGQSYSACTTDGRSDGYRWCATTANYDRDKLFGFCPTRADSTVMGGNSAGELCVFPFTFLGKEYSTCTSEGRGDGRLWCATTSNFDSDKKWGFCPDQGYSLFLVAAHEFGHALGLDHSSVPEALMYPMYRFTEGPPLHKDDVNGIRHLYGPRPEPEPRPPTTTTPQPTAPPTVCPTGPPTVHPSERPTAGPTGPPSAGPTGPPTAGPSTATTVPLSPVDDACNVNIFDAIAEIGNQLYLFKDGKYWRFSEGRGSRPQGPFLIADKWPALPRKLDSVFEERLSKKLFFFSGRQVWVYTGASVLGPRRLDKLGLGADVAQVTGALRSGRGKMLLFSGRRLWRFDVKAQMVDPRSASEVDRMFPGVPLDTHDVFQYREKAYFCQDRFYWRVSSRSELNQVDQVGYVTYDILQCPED

[4] = RP of the P3-P1' tetramer contained in the substrate
[5] = individual phage substrate of the set of 1369 peptides, cleavage position marked by '-'
[6] = individual phage substrate of the set of 1369 peptides, dash in the sequence marks the cleavage position
[7] = RP of the P3-P1' tetramer contained in the substrate (substrate phage display with NGS)
[8] = individual phage substrates, set of 1369 peptides, cleavage position marked by hyphen in sequence
[9] = individual phage substrates, set of 1369 peptides, hyphen in sequence marks cleavage position
[10] = individual phage substrate from the set of 1369 peptides, cleavage position marked by the dash in the sequence
[11] = individual phage substrates, set of 1369 peptides, dash in sequence marks cleavage position
[12] = individual phage substrates, set of 1369 peptides, cleavage position marked by '-' in the sequence
[13] = individual phage substrates, set of 1369 peptides, '-' marks the cleavage position (P1-P1')

Substance | Kobs [2, 5] [M⁻¹ s⁻¹] | Kobs [3, 6] [M⁻¹ s⁻¹] | Kobs [2, 8] [M⁻¹ s⁻¹] | Kobs [3, 9] [M⁻¹ s⁻¹] | relative probability (RP) [1, 4] | relative probability (RP) [1, 7] | other results
GHYHH-LMTAS | 0 | 0 | – | – | 0 | – | –
GFSAN-LKTAS | 5667.28 | 484.315 | – | – | 23.7816 | – | –
PGPES-LTASG | – | – | 10866.7 | 12792.1 | – | 26.0767 | –
SGVNH-LMTTA | 201.585 | 231.616 | – | – | 12.8499 | – | –
GSVHH-LITAS | 0 | 0 | – | – | 14.1228 | – | –
GVYGA-LRTAS | 12792.1 | 142.481 | – | – | 28.8499 | – | –
LLYMG-LTASG | – | – | 874.197 | 799.117 | – | 0.09823 | –
GDMRH-LSTAS | – | – | 1561.44 | 799.117 | – | 14.413 | –
MSLGY-LTASG | 12792.1 | 0 | – | – | 24.8925 | – | –
GNSWG-LRTAS | 292.668 | 690.17 | – | – | 0.1389 | – | –
GSGAH-LQLST | 171.876 | 292.668 | – | – | 8.464 | – | –
KSPVF-LTASG | 9740.44 | 6688.74 | – | – | 21.7568 | – | –
HYPLN-STASG | 4335.13 | 8321.48 | – | – | 18.9358 | – | –
AKVMS-LTASG | – | – | 1513.13 | 2218.08 | – | 14.6983 | –
PHTAS-LTASG | 12792.1 | 0 | – | – | 17.8872 | – | –
GLPLN-WRTAS | – | – | 2545.25 | 3964.21 | – | 28.8158 | –
QKVLN-MTASG | – | – | 2476.66 | 5269.78 | – | 19.025 | –
SGPLG-IKSTA | – | – | 12792.1 | 12792.1 | – | 33.936 | –

Substance | Kobs [2, 5] [M⁻¹ s⁻¹] | Kobs [3, 6] [M⁻¹ s⁻¹] | Kobs [2, 8] [M⁻¹ s⁻¹] | Kobs [3, 9] [M⁻¹ s⁻¹] | relative probability (RP) [1, 4] | relative probability (RP) [1, 7] | other results
TRIAY-LTASG | 12792.1 | 3165.09 | – | – | 27.9862 | – | –
MSLGN-LTASG | – | – | 12792.1 | 292.668 | – | 33.3542 | –
PIALH-WTASG | – | – | 12792.1 | 12792.1 | – | 5.12 | –
VMYGN-LTASG | – | – | 12792.1 | 619.843 | – | 24.0019 | –
ENFLH-LTASG | – | – | 142.481 | 27.918 | – | 0.8093 | –
APVLA-LTASG | – | – | 12792.1 | 6688.74 | – | 13.5229 | –
SGVRF-LMNTA | 1418.96 | 9740.44 | – | – | 15.0438 | – | –
MVPKW-LTASG | 7815.03 | 10866.7 | – | – | 29.287 | – | –
VFTRN-LTASG | 12792.1 | 6396.07 | – | – | 12.3403 | – | –
AFLSH-WTASG | – | – | 12792.1 | 0 | – | 23.1226 | –
GGPRS-LFTAS | 12792.1 | 12792.1 | – | – | 33.3704 | – | –
IAFSQ-LTASG | – | – | 6688.74 | 0 | – | 9.065 | –
YDVYN-LTASG | 3253.29 | 7815.03 | – | – | 19.1818 | – | –
SGVMK-LQKTA | – | – | – | – | – | – | Kobs [2, 10]: 0 M⁻¹ s⁻¹; Kobs [3, 11]: 0 M⁻¹ s⁻¹
EVTMW-LTASG | – | – | – | – | – | – | Kobs [2, 12]: 551.253 M⁻¹ s⁻¹; Kobs [3, 13]: 951.362 M⁻¹ s⁻¹
GGSGN-LTFLA | – | – | – | – | – | – | Kobs [2, 10]: 451.441 M⁻¹ s⁻¹; Kobs [3, 11]: 0 M⁻¹ s⁻¹
SGVAS-LMGTA | – | – | – | – | – | – | Kobs [2, 10]: 12792.1 M⁻¹ s⁻¹; Kobs [3, 11]: 8941.32 M⁻¹ s⁻¹
PGIAN-LTASG | – | – | – | – | – | – | Kobs [2, 12]: 7815.03 M⁻¹ s⁻¹; Kobs [3, 13]: 2218.08 M⁻¹ s⁻¹

More lines, main results first:

Kobs [2, 5] [M⁻¹ s⁻¹] | Kobs [3, 6] [M⁻¹ s⁻¹] | Kobs [2, 8] [M⁻¹ s⁻¹] | Kobs [3, 9] [M⁻¹ s⁻¹] | Substance | relative probability (RP) [1, 4] | relative probability (RP) [1, 7] | other results
12792.1 | 12792.1 | – | – | SGPLG-LSGTA | 35.3536 | – | –
7015.91 | 171.876 | – | – | GTLMG-LYTAS | 28.5499 | – | –
12792.1 | 0 | – | – | GSLAH-LTASG | 32.813 | – | –
– | – | 1870.4 | 4922.1 | GSVWA-LTASG | – | 12.7502 | –
– | – | 10866.7 | 12792.1 | IPAFN-LTASG | – | 16.2959 | –
– | – | 585.336 | 1373.05 | GRIYE-LWTAS | – | 0.2382 | –
– | – | 990.764 | 690.17 | FSLRQ-MTASG | – | 8.677 | –
8941.32 | 6396.07 | – | – | VLPEP-LTASG | 26.8179 | – | –
10866.7 | 4470.66 | – | – | PSWRA-LTASG | 22.4074 | – | –
– | – | 2687.73 | 1239.69 | GEPNY-LKTAS | – | 17.2533 | –
– | – | 951.362 | 142.481 | EIWLP-ITASG | – | 0.6666 | –
9740.44 | 12792.1 | – | – | GFPLM-LTASG | 25.0435 | – | –
1154.21 | 726.013 | – | – | NHVWP-LTASG | 5.294 | – | –
– | – | 836.403 | 0 | SGLGT-LSKTA | – | 24.6198 | –
– | – | 8941.32 | 0 | WRYSN-LTASG | – | 25.2832 | –
– | – | 1816.46 | 951.362 | GRGAN-LKTAS | – | 13.1428 | –
– | – | 5269.78 | 5461.43 | LTPRY-WTASG | – | 20.9965 | –
12792.1 | 8941.32 | – | – | SGPRG-QVFTA | 29.4864 | – | –
231.616 | 0 | – | – | GSGYH-LRHTT | 0.08149 | – | –
– | – | 7386.83 | 4335.13 | SIVRM-LTASG | – | 15.9125 | –
– | – | 12792.1 | 7386.83 | GEVRG-LRTAS | – | 29.092 | –
690.17 | 0 | – | – | KTWRN-LTASG | 6.7583 | – | –
– | – | 799.117 | 619.843 | YNWRH-LTASG | – | 0.4087 | –
